In assay [1] the test system is allo-reactive CD4+IFNg+ T cell generation. Kind of assay: mixed lymphocyte reaction (GVHD in vitro validation model), flow cytometry. It counts as cell-based, mouse. Particulars: for Amount of generation (%) of CD4+IFNg+ T cells: BALB/c irradiated splenocytes + C57BL6/J CD4+ T cells, 5 days, positive control 37.4, syngeneic control 15.3. An excerpt:
A high amount of CD4+IFNg+ T cell generated can be inferred to allow the proliferation of T cells against allogenic antigens, thereby attacking the body organs of a patient. Therefore, a graft versus host disease (GVHD) in vitro validation model was subjected to a mixed lymphocyte reaction to compare the degree of allo-reactive CD4+IFNg+ T cell generation among thiamine derivatives by flow cytometry.
Specifically, BALB/c mice were sacrificed by cervical dislocation, and then the spleens were extracted, followed by erythrocyte lysis using ACK lysing buffer. Thereafter, the isolated spleen cells were irradiated at 2500 cGy.
The positive group was treated with 10, 50, and 100 uM benfotiamine, 1, 5, and 10 uM allithiamine, and 10, 50, and 100 uM fursultiamine to prepare experimental groups.
Thereafter, the cells were cultured in RPMI1640 (10% FBS, 1% penicillin streptomycin) at 37° C. for 5 days, and the cells were separated, followed by flow cytometry, to investigate the degree of CD4+IFNg+ T cell generation.
Background: A flow cytometer gives signals particle by particle.

Assay [2] concerns graft versus host disease (GVHD) model mice. An excerpt: Referring to FIG. 2A, 5-week-old BALB/c male mice were acclimatized for 1 week, irradiated with 800 cGy radiation throughout the body, and then injected with 5×10^6 C57BL/6J-derived bone marrow cells and 1×10^7 splenocytes derived therefrom via IV injection, thereby constructing a GVHD in vivo model (positive control group, Positive). The syngeneic control group (Syngeneic) was constructed in the same manner as above while BALB/c-derived bone marrow cells were selected as the bone marrow cells to be injected.
The fursultiamine administration group (Fur50) was constructed by daily oral gavage of fursultiamine HCl at 50 mg/kg to the GVHD in vivo model.
The treatment effect of fursultiamine was investigated on the constructed experimental groups by measuring the change in weight every 3 days.
On Day 14, the comparison between the amounts of generation of CD4+ T cells and CD4+IFNg+ T cells, which are major factors causing GVHD, was performed in the spleens isolated from the mice.
On Day 14 of inducing the GVHD in vivo model, liver and large intestine tissues were extracted from the mice, fixed in 4% paraformaldehyde for 48 hours, and then embedded in paraffin. The resultant tissues were sliced into 5 μm sections and then subjected to hematoxylin and eosin (H&E) staining. (bar=100 um)

The mark [3] stands for this setting: spleen, Day 14, 50 mg/kg daily oral, in words.

Take `CC(=C(CCO)SSCC1CCCO1)N(C=O)Cc1cnc(C)nc1N` (stereo in doubt) [Fursultiamine, fursultiamine]: the “Amount of generation (%) of CD4+IFNg+ T cells” value in assay [1] (10 μM) was determined as 34.9%; in assay [1] (50 μM), 13.6%; in assay [1] (100 μM), 12.5%. For the same compound, in assay [1] (at 50 uM or more, concentration dependent), the “degree of generation of CD4+IFNg+ T cells compared with the positive control” value (“degree … compared with the positive control” for short) is reported as “significant reduction”. Also, the “infiltration of immune cells in the liver tissue (H&E staining)” value in assay [2] (Day 14, 50 mg/kg daily oral, versus positive control group) is recorded as “reduced”. Further, the “degree of infiltration of inflammatory cells into the liver and colon” value in assay [2] (GVHD-induced mouse model, summary statement) is on record as “reducing the degree of infiltration”. Besides, in assay [2] (fursultiamine HCl 50 mg/kg daily oral gavage, Day 12 of oral administration), the “change in weight compared with the GVHD in vivo model” value is on record as “significant recovery”. Besides, the “amount of generation of allogenic CD4+ T cells” value in assay [2] (setting [3]) was “reduced”. The “amount of generation of allogenic CD4+IFNg+ T cells” value in assay [2] (setting [3]) is listed as “reduced”. In assay [2] (spleen, Day 14, fursultiamine HCl 50 mg/kg daily oral gavage, positive control 18.3, syngeneic control 3.2), the “Amount of generation of CD4+IFNg+ T cells (%)” value was 12.6%. The “Amount of generation of CD4+ T cells (%)” value in assay [2] (spleen, Day 14, fursultiamine HCl 50 mg/kg daily oral gavage, positive control 21.1, syngeneic control 6.9) stood at 13.4%.
With `C=CCSS/C(CCO)=C(/C)N(C=O)Cc1cnc(C)nc1N` [Allithiamine, allithiamine], the “Amount of generation (%) of CD4+IFNg+ T cells” value in assay [1] (1 μM) was 35.2%; in assay [1] (5 μM) it was 25.7%; in assay [1] (10 μM), 23.9%. In addition, the “degree … compared with the positive control” value in assay [1] (at 5 uM or more, concentration dependent) was “significant reduction”.
With `C/C(=C(\CCOP(=O)(O)O)SC(=O)c1ccccc1)N(C=O)Cc1cnc(C)nc1N` [Benfotiamine, benfotiamine], the figures for the “Amount of generation (%) of CD4+IFNg+ T cells” value in assay [1] (10 μM), in assay [1] (50 μM) and in assay [1] (100 μM) were 36.8%, 43.9% and 40.1%, respectively. Moreover, in assay [1] (regardless of the concentration (10, 50, 100 uM)), the “degree … compared with the positive control” value was “no significant difference”.

Source of the values: patent US12721848B2, “Pharmaceutical composition for preventing or treating graft versus host disease comprising thiamine derivatives” (Kyungpook National University Industry-Academic Cooperation …, priority 2020, dated 2026).
